Experimental data published in US5962475A, “Substituted benzo(B)thiophene compounds having activity as selective estrogen receptor modulators” (Eli Lilly and Company, priority 1997, dated 1999).

Assays:
[1] = tested on: MCF-7 breast adenocarcinoma cells; assay: MCF-7 proliferation assay; assay type: cell-based; conditions: Homo sapiens, MCF7; MCF-7 cells, tritiated thymidine pulse after 48 hours with compound; read-out: ED50 (the source's name)
Method: MCF-7 breast adenocarcinoma cells (ATCC HTB 22) were maintained in MEM (minimal essential medium, phenol red-free, Sigma, St. Louis, Mo.) supplemented with 10% fetal bovine serum (FBS) (V/V), L-glutamine (2 mM), sodium pyruvate (1 mM), HEPES {(N-[2-hydroxyethyl]piperazine-N'-[2-ethanesulfonic acid]10 mM}, non-essential amino acids and bovine insulin (1 μg/ml) (maintenance medium). Ten days prior to assay, MCF-7 cells were switched to maintenance medium supplemented with 10% dextran coated charcoal stripped fetal bovine serum (DCC-FBS) assay medium) in place of 10% FBS to deplete internal stores of steroids. MCF-7 cells were removed from maintenance flasks using cell dissociation medium (Ca++/Mg++ free HBSS (phenol red-free) supplemented with 10 mM HEPES and 2 mM EDTA). Cells were washed twice with assay medium and adjusted to 80,000 cells/ml. […] Serial dilutions of drugs or DMSO as a diluent control were prepared in assay medium and […] to triplicate microcultures followed by […] assay medium for a final volume of […]. After an additional 48 hours at 37° C. in a 5% CO2 humidified incubator, microcultures were pulsed with tritiated thymidine (1 uCi/well) for 4 hours. Cultures were terminated by freezing at -70° C. for 24 hours followed by thawing and harvesting of microcultures. Samples were counted by liquid scintillation.

serum cholesterol = assay: Serum cholesterol in ovariectomized rats, four day oral dosing; assay type: in vivo, Sprague Dawley rats; conditions: for Serum Cholesterol (% decrease OVX): daily for 4 days, vs OVX control
Method: (§1) In the examples illustrating the methods, a post-menopausal model was used in which effects of different treatments upon various biological parameters were determined, including serum cholesterol concentration, uterine weight, estrogen receptor binding, uterine eosinophil peroxidase activity, MCF-7 cell proliferation, and bone density.
(§2) Seventy-five day old female Sprague Dawley rats (weight range of 200 to 225 g) were obtained from Charles River Laboratories (Portage, Mich.). The animals were either bilaterally ovariectomized (OVX) or exposed to a sham surgical procedure (Intact) at Charles River Laboratories, and then shipped after one week. Upon arrival, they were housed in metal hanging cages in groups of 3 or 4 per cage and had ad libi tum access to food (calcium content approximately 0.5%) and water for one week. Room temperature was maintained at 22.20°±1.70° C. with a minimum relative humidity of 40%. The photoperiod in the room was 12 hours light and 12 hours dark.
(§3) After a one week acclimation period (therefore, two weeks post-OVX), daily dosing with test compound was initiated. 17a-Ethynyl estradiol (EE2) (Sigma Chemical Co., St. Louis, Mo.), an orally available form of estrogen, or the test compound were given orally, unless otherwise stated, as a suspension in 1% carboxymethyl cellulose or dissolved in 20% β-cyclodextrin. Animals were dosed daily for 4 days. Following the dosing regimen, animals were weighed and anesthetized with a ketamine:xylazine (2:1, v:v) mixture. A blood sample was collected by cardiac puncture. The animals were then sacrificed by asphyxiation with CO2, the uterus was removed through a midline incision, and a wet uterine weight was determined.
Blood samples were allowed to clot at room temperature for 2 hours, and serum was obtained following centrifugation for 10 minutes at 3000 rpm. Serum cholesterol was determined using a Boehringer Mannheim Diagnostics high performance cholesterol assay. Briefly the cholesterol was oxidized to cholest-4-en-3-one and hydrogen peroxide. The hydrogen peroxide was then reacted with phenol and 4-aminophenazone in the presence of peroxidase to produce a p-quinone imine dye, which was read spectrophotemetrically at 500 nm. Cholesterol concentration was then calculated against a standard curve. The entire assay was automated using a Biomek Automated Workstation.
(§4) Data presented in Table 1 below show comparative results among control ovariectomized rats, rats treated with EE2, and rats treated with certain compounds of the present invention. […] This uterine response to estrogen is well recognized in the art.
(§5) The data presented in Table 1 reflect the response of 5 or 6 rats per treatment.

[2] = tested on: ovariectomized (OVX) rats, uterus; assay: Uterine weight in ovariectomized rats, four day oral dosing; assay type: in vivo, Sprague Dawley rats; conditions: for Uterine Weight (% inc. OVX): daily for 4 days, vs OVX control
Method: as §1, §2, §3, §4, §5

[3] = tested on: uterine eosinophil peroxidase activity; assay: Uterine eosinophil peroxidase (EPO) assay in ovariectomized rats, four day dosing; assay type: in vivo, Sprague Dawley rats; parameters: Uterine EPO (Vmax): unit not given beside the values; conditions: for Uterine EPO (Vmax): daily for 4 days
Method: as §1, §2, §3
Uteri were kept at 4° C. until time of enzymatic analysis. The uteri were then homogenized in 50 volumes of 50 mM Tris buffer (pH--8.0) containing 0.005% Triton X-100. Upon addition of 0.01% hydrogen peroxide and 10 mM o-phenylenediamine (final concentrations) in Tris buffer, increase in absorbance was monitored for one minute at 450 nm. The presence of eosinophils in the uterus, as measured by assay of eosinophil peroxidase activity, is an indication of estrogenic activity of a compound. The maximal velocity of a 15 second interval was determined over the initial, linear portion of the reaction curve.
As is expressed in the data below, estrogenicity also was assessed by evaluating the adverse response of eosinophil infiltration into the uterus.
as §5

MCF-7 Estrogen Receptor = biological target: T1, MCF-7 Estrogen Receptor (Homo sapiens, UniProt P03372); assay: MCF-7 estrogen receptor binding assay, competition with tritiated 17β-estradiol
T1 construct: protein from MCF-7 lysates; endogenous in cells; host or cells: MCF-7 (lysate)
T1 sequence (P03372 1-595): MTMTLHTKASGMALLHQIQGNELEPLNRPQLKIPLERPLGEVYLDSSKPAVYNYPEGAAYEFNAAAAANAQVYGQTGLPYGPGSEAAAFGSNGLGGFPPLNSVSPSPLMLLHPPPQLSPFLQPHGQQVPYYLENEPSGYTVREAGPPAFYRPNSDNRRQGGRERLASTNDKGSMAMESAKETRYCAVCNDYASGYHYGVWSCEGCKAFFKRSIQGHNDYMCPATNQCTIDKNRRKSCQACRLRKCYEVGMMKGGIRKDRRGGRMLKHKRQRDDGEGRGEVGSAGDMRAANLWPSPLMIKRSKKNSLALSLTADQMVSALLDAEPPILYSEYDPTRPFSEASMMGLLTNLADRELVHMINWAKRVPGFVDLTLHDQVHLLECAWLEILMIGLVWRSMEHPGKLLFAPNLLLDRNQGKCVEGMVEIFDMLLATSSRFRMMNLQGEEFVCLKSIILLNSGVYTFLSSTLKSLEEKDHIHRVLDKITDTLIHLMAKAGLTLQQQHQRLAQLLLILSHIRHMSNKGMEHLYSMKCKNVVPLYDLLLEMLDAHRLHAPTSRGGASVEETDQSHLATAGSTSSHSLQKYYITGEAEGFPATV
Method: Binding was allowed to take place for 18 hours at 5-- C., followed by the addition of 0.07 mL of dextran/charcoal and centrifugation to remove non-bound radioligand. Aliquots of supernate containing bound radioligand were mixed with scintillant and counted. Relative binding affinity (RBA) was calculated as: [formula]

SMILES	IC50 [1] [nM]	Serum Cholesterol (% decrease OVX) (serum cholesterol; 0.1 mg/kg PO) [%]	Serum Cholesterol (% decrease OVX) (serum cholesterol; 1 mg/kg PO) [%]	Serum Cholesterol (% decrease OVX) (serum cholesterol; 10 mg/kg PO) [%]	Uterine Weight (% inc. OVX) ([2]; 0.1 mg/kg PO) [%]	Uterine Weight (% inc. OVX) ([2]; 1 mg/kg PO) [%]	Uterine Weight (% inc. OVX) ([2]; 10 mg/kg PO) [%]	Uterine EPO (Vmax) ([3]; 0.1 mg/kg PO)	Uterine EPO (Vmax) ([3]; 1 mg/kg PO)	Uterine EPO (Vmax) ([3]; 10 mg/kg PO)	Relative binding affinity (RBA) (MCF-7 Estrogen Receptor)	serum cholesterol, in words (serum cholesterol; orally, 0.1 mg/Kg/day)	action on the uterus / uterine weight, in words ([2]; orally, 0.1 mg/Kg/day)	eosinophil infiltration into the uterus, in words ([3]; ovariectomized rats, by assay of eosinophil peroxidase activity)
CN(CCN1CCCCC1)c1ccc(C(=O)c2c(-c3ccc(O)cc3)sc3cc(O)ccc23)cc1 [Example 6, 6-hydroxy-2-(4-hydroxyphenyl)-3-[4-(N-methyl-N-2-(piperidin-1-yl)ethylamino)benzoyl]-benzo[b]thiophene]	10	4.7	42.0	65.1	17.1	45.4	43.0	4.5	3.3	6.0	0.19			
O=C(c1ccc(SCCN2CCCCC2)cc1)c1c(-c2ccc(O)cc2)sc2cc(O)ccc12 [Example 4, 6-hydroxy-2-(4-hydroxyphenyl)-3-[4-(2-(piperidin-1-yl)ethylthio)benzoyl]-benzo[b]thiophene]	0.9	-16.6	37.5	47.5	3.5	23.1	16.7	3.3	1.2	1.8				
O=C(c1ccc(S(=O)(=O)CCN2CCCCC2)cc1)c1c(-c2ccc(O)cc2)sc2cc(O)ccc12 [Example 8, 6-hydroxy-2-(4-hydroxyphenyl)-3-[4-(2-(piperidin-1-yl)ethylsulfonyl)benzoyl]benzo[b]thiophene]	30	-23.3	17.2	62.3	16.2	66.9	75.0	4.8	13.5	23.1				
COc1ccc(-c2sc3cc(OC)ccc3c2C(=O)c2ccc(S(=O)(=O)CCN3CCCCC3)cc2)cc1 [Example 7, 6-methoxy-2-(4-methoxyphenyl)-3-[4-(2-(piperidin-1-yl)ethylsulfonyl)benzoyl]benzo[b]thiophene]	1000	-4.4	12.0	28.7	26.4	18.6	48.4	7.5	4.8	8.4	< 0.002			
C#C[C@]1(O)CC[C@H]2[C@@H]3CCc4cc(O)ccc4[C@H]3CC[C@@]21C [Ethynyl estradiol, 17a-Ethynyl estradiol, reference compound]		80.3			144.1			123.9				decrease in serum cholesterol	marked stimulatory action on the uterus	substantial, expected increase in eosinophil infiltration
O=C(c1ccc(NCCN2CCCCC2)cc1)c1c(-c2ccc(O)cc2)sc2cc(O)ccc12 [Example 2]	2	-0.5	13.6	42.4	-5.0	15.8	35.6	1.8	2.4	2.1				
